Among the data in PMC11597625, “Mutational Analysis of Substrate Recognition in Trypsin-like Protease Cocoonase: Protein Memory Induced by Alterations in Substrate-Binding Site” (Molecules, 2024) are Km values, retold here.

In the experiment the target is T1, CCN′ ([K63G,K131G,K133A]-CCN, degradation-suppressed cocoonase) (Bombyx mori, UniProt A7TVD3, K85G/K153G/K155A).
T1 construct: mature enzyme, propeptide removed (precursors carried K8D or K8D/E10D/E11D in the propeptide)
As to the kind of experiment: BAEE hydrolysis assay. Format: biochemical. The settings on record: assay conditions not described.

T1 sequence (A7TVD3 entry or part of it K85G/K153G/K155A): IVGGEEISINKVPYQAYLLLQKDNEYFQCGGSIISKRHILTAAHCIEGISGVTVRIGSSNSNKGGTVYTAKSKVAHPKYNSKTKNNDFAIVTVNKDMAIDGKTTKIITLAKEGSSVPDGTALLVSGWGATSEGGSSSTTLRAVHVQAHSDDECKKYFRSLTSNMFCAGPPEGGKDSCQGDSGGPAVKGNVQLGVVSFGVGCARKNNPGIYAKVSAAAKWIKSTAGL

With `CCOC(=O)[C@H](CCCNC(=N)N)NC(=O)c1ccccc1` [BAEE], the Km worked out at 372 µM.
